Results published in patent publication US11241475B2, “Preventive and/or therapeutic agent for osteogenesis imperfecta and other diseases” (Pharma Foods International Co., Ltd., priority 2016, dated 2022).

Legend:
[1] = Effect on body weight (Example 7); type: in vivo; conditions: rats, days 1, 3, 5 and 7; peptide 1, 10 or 100 mg/kg/day oral, hGH 500 μg/kg/day subcutaneous; FIG. 24
Procedure: The synthetic peptide No. 1 or water for injection (control) was administered to male Crlj:WI rats at the age of four weeks by oral gavage using a gastric tube once a day for seven days (n=10 in each group). The dosage of the synthetic peptide was 1, 10 or 100 mg/kg/day. As a positive control, human growth hormone (hGH) (Norditropin, Japan Standard Commodity Classification Number: 872412) was subcutaneously administered at 500 μg/kg/day once a day for seven days. The body weight was measured on days 1, 3, 5 and 7 of administration.

[2] = tested on: male Crlj:WI rats; test: Osteogenesis-promoting effect on growth plate and secondary cancellous bone, 21 days (Example 5); type: in vivo; conditions: peptide 100 mg/kg/day oral, hGH 500 μg/kg/day subcutaneous, versus control group, FIG. 14
Procedure: The synthetic peptide No. 1 or water for injection (control) was administered to male Crlj:WI rats at the age of four weeks by oral gavage using a gastric tube once a day for 21 days. The dosage of the synthetic peptide was 100 mg/kg/day. As a positive control, human growth hormone (hGH) was subcutaneously administered at 500 μg/kg/day once a day for 21 days. As fluorescent labels for the bone formation site, tetracycline (20 mg/kg) was subcutaneously administered on day 18 after the administration of the peptide or controls, and then calcein (10 mg/kg) was subcutaneously administered on day 20 after the administration of the peptide or controls. After the administration of the sample on day 21, the rats were kept under fasting conditions. […] Undecalcified specimens of the proximal tibia were prepared and photographed under a fluorescent microscope (BX-53, Olympus Corporation), and the bone morphology was measured using a morphometry system (Histometry RT digitizer, System Supply Co., Ltd.) and an analysis software (CSS-840 cancellous bone morphometry version, System Supply Co., Ltd.). The longitudinal growth rate (Lo.G.R.) of the epiphyseal plate per day was determined by measuring the distance between the tetracycline and calcein labels and dividing the distance by the time interval between the administrations of the two fluorescent labels (two days).

[3] = tested on: male Crlj:WI rats; test: Calcification rate and morphometry in secondary cancellous bone, seven days (Example 6); type: in vivo; conditions: peptide 1, 10 or 100 mg/kg/day oral, hGH 500 μg/kg/day subcutaneous, versus control group, FIG. 18
Procedure: (§1) The synthetic peptide No. 1 or water for injection (control) was administered to male Crlj:WI rats at the age of four weeks by oral gavage using a gastric tube once a day for seven days (n=10 in each group). The dosage of the synthetic peptide was 1, 10 or 100 mg/kg/day. As a positive control, human growth hormone (hGH) (Norditropin, Japan Standard Commodity Classification Number: 872412) was subcutaneously administered at 500 μg/kg/day once a day for seven days. As fluorescent labels for the bone formation site, tetracycline (20 mg/kg) was subcutaneously administered on day 4 after the administration of the peptide or controls, and then calcein (10 mg/kg) was subcutaneously administered on day 6 after the administration of the peptide or controls. After the administration of the sample on day 7, the rats were kept under fasting conditions. […] Undecalcified specimens of the proximal tibia were prepared and photographed under a fluorescent microscope (BX-53, Olympus Corporation), and the bone morphology was measured using a morphometry system (Histometry RT digitizer, System Supply Co., Ltd.). The daily calcification rate (mineral apposition rate) was determined by measuring the distance between the tetracycline and calcein labels in the secondary cancellous bones and dividing the distance by the time interval between the administrations of the two fluorescent labels (two days).

[4] = tested on: male Crlj:WI rats; test: Bone growth-promoting effect on rats in the growth phase, seven days (Example 3); type: in vivo; conditions: hGH 500 μg/kg/day subcutaneous, versus control group
Procedure: as §1, with “longitudinal growth” for “daily calcification”, “(Lo.G.R.) of the growth plate per day” for “(mineral apposition rate)”, “labels” for “labels in the secondary cancellous bones”

[5] = tested on: insulin-like growth factor (IGF-1); test: Promoting effect on IGF-1 production after single oral dose (Example 8); type: in vivo; conditions: rats
Procedure: The synthetic peptide No. 1 or No. 2 or water for injection (control) was orally administered as a single dose to male Wistar rats at the age of four weeks by using a gastric tube (n=6 in each group). The dosage of the synthetic peptide No. 1 or No. 2 was 10 mg/kg. The blood was collected from the tail before administration and 30, 45, 60 and 90 minutes after administration, and the serum was separated. At 120 minutes after administration, the whole blood was collected from the abdominal vena cava under anesthesia and the rats were euthanized (see FIG. 25). The concentration of IGF-1 in the serum was measured by ELISA (Mouse/Rat IGF-I Quantikine ELISA Kit (MG100), R&D Systems, Inc.).
(§2) The concentration dependence of the synthetic peptides was examined. The synthetic peptide No. 1 was orally administered as a single dose of 1, 5 or 10 mg/kg (n=6 in each group). At 60 minutes after administration, the rats were euthanized under anesthesia, and the liver was harvested. The concentration of IGF-1 in the serum and liver was measured. For the serum IGF-1 concentration, the difference (Δ value) before and after administration was also determined.
as §2, with “The” for “The concentration dependence of the synthetic peptides was examined. The”, “No. 2” for “No. 1”, “administered to the rats” for “administered”, “of 0.1, 1” for “of 1, 5”, “At 45” for “At 60”

[6] = tested on: mouse osteoblast-like cell line MC3T3-E1 Subclone-4; test: Proliferation-promoting activity on osteoblastic precursor cells (BrdU uptake); type: cell-based
Procedure: The mouse osteoblast-like cell line MC3T3-E1 Subclone-4 (ATCC No. CRL-2593) was cultured in α-MEM medium supplemented with 10% FBS at 37° C. in 5% CO2-95% air to subconfluence. The cells were collected by trypsinization. The collected cells were suspended at 5×10^4 cells/mL in fresh α-MEM medium with the same supplement. One hundred microliters of the cell suspension was seeded in each well of a 96-well plate, and precultured at 37° C. in 5% CO2-95% air. On the next day, the medium was replaced with α-MEM medium containing the sample dissolved therein with a supplement of 0.1% FBS. The cells were further cultured for 24 hours. The proliferative activity of the osteoblastic precursor cells was assessed by measuring the amount of BrdU uptake. The proliferation-promoting activity of the sample on the osteoblastic precursor cells was expressed as a value relative to the proliferation level of the cells in the absence of the sample, which was taken as 100.

[7] = tested on: insulin-like growth factor (IGF-1); test: IGF-1 production: peptide No. 2 versus reverse sequence and constituent amino acids (Example 9); type: in vivo; conditions: rats, single oral dose 10 mg/kg, 45 minutes, groups No. 2, R-No. 2, AA, control
Procedure: The synthetic peptide No. 2, a peptide consisting of a reverse sequence of the peptide No. 2 (SEQ ID NO: 3; herein also called R-No. 2), constituent amino acids of the synthetic peptide No. 2 (herein also called AA), or water for injection (control) was orally administered as a single dose to male Wistar rats at the age of four weeks by using a gastric tube (n=6 in each group). The dosage of the synthetic peptide, the reverse sequence peptide and the constituent amino acids was 10 mg/kg. At 45 minutes after administration, the rats were euthanized under anesthesia, and the liver was harvested. The concentration of IGF-1 in the serum and liver was measured by ELISA (Mouse/Rat IGF-I Quantikine ELISA Kit (MG100), R&D Systems, Inc.). For the serum IGF-1 concentration, the difference (Δ value) before and after administration was also determined.

[8] = tested on: mouse chondrogenic cell line ATDC5; test: Proliferation-promoting activity on chondrogenic cells (BrdU uptake); type: cell-based; conditions: ATDC5, 24 hours, relative to absence of sample = 100, FIGS. 5 and 6
Procedure: The mouse chondrogenic cell line ATDC5 (RCB0565) was cultured in DMEM/F-12 medium supplemented with 5% FBS, 3×10-8 M sodium selenite and 5 μg/mL human transferrin at 37° C. in 5% CO2-95% air to subconfluence. The cells were collected by trypsinization. The collected cells were suspended at 5×10^4 cells/mL in fresh DMEM/F-12 medium with the same supplements. One hundred microliters of the cell suspension was seeded in each well of a 96-well plate, and precultured at 37° C. in 5% CO2-95% air. On the next day, the medium was replaced with DMEM/F-12 medium containing the sample dissolved therein with a supplement of 3×10^−8 M sodium selenite and 5 μg/mL human transferrin. The cells were further cultured for 24 hours. The proliferative activity of the chondrogenic cells was assessed by measuring the amount of BrdU uptake. The proliferation-promoting activity of the sample on the chondrogenic cells was expressed as a value relative to the proliferation level of the cells in the absence of the sample, which was taken as 100.

Row | Substance | change in the body weight [1] | longitudinal growth rate (Lo.G.R.) of the epiphyseal plate per day [2] | calcification rate (mineral apposition rate) in the secondary cancellous bone [3] | area of the hypertrophic cartilage layer ([4]; peptide 10 mg/kg/day oral, FIG. 9) | longitudinal growth rate (Lo.G.R.) of the growth plate per day ([4]; peptide 1, 10 or 100 mg/kg/day oral, FIG. 8) | concentration of IGF-1 in the serum (time course) ([5]; single oral dose 10 mg/kg, at 45 and 60 minutes after administration, versus control, FIG. 27) | dose dependence of IGF-1 concentration in the serum and liver ([5]; single oral dose 0.1, 1 or 10 mg/kg, 45 minutes) | concentration of IGF-1 in the serum ([5]; single oral dose 0.1, 1 or 10 mg/kg, 45 minutes after administration, versus control group, FIG. 30) | concentration of IGF-1 in the liver ([5]; single oral dose 0.1, 1 or 10 mg/kg, 45 minutes after administration, versus control group, FIG. 31) | proliferation-promoting activity on osteoblastic precursor cells ([6]; MC3T3-E1, 24 hours, BrdU uptake, relative to absence of sample = 100, FIGS. 3 and 4) | concentration at which the proliferation-promoting effect is exhibited ([6]; MC3T3-E1, BrdU uptake) | proliferation-promoting activity on osteoblastic precursor cells, comparison between the peptides ([6]; MC3T3-E1, BrdU uptake, No. 2 versus No. 1) | concentration of IGF-1 in the serum ([7]; FIG. 32) | concentration of IGF-1 in the liver ([7]; FIG. 33) | proliferation-promoting activity on chondrogenic cells [8]
1 | hGH: human growth hormone (hGH) (Norditropin), positive control, subcutaneously administered | No significant change | significant promotion of bone growth | significant increase | significantly larger | significant promotion of bone growth |  |  |  |  |  |  |  |  |  | 
2 | Val-Asn-Pro-Glu (VNPE) [synthetic peptide No. 2] |  |  |  |  |  | significantly higher | increased in a dose-dependent manner | significantly higher | significantly higher | promoted the proliferation | sufficiently exhibited its effect at a low concentration | higher activity than the synthetic peptide No. 1 | significantly higher | significantly higher | promoted the proliferation
